The test deals with CEM cells HIV-1 protection, formazan growth assay. Description: NCI AIDS Antiviral Assay. Particulars: for IC50: measured here: growth of uninfected CEM cells. An outline of the steps: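 Soluble formazan readout of cell growth; CEM cells ± HIV-1; 5 drug concs. ≥50% protection → retest; ≥50% again = moderately active; reproducible 100% = confirmed active.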

Where “and” joins values, the source holds several entries; their conditions need not be identical. Identical values can stand only once. Calls of active or inactive are those of the source.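 The calls were made as follows: active = compounds giving half or more protection of infected cells from virus-caused growth loss, again on retest; inactive = the rest.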 Where a SMILES comes first, the peptide text is derived from it.

For the molecule `O=c1cc(N=Nc2ccc(Cl)c(Cl)c2)[nH]c(=O)[nH]1`, the EC50 was above 2 µM and the IC50 was found to be 1.55 µM.
For `NCC(=O)NC1(C(=O)O)CCCC1` (HELM PEPTIDE1{G.[O=C(O)C1(N[*:1])CCCC1]}$$$$V2.0), the EC50 is above 200 µM and the IC50 was above 200 µM.
As to `COc1ccc2c(c1)N(C(C)=O)CN1C(=O)CCC21` (stereo not given), the result was inactive.
Consider `O=Nc1c[nH]c(=O)[nH]c1=O`, for which the EC50 was above 200 µM and the IC50 is above 200 µM.
For `CCOC(=O)/C=C1\C(=O)N(Cc2ccccc2)c2ccccc21`, the EC50 is above 200 µM and the IC50 was 1 µM.
The like results for `[Cu+2].[O-]/C(=N\N=C/c1ccccc1F)c1ccncc1.[O-]/C(=N\N=C\c1ccccc1F)c1ccncc1` were, in that order, above 100 µM and 16.2 µM.
For `O=c1cc(O)nc(CO)[nH]1` the same measures were above 200 µM and above 200 µM.
The like results for `CCCCCCCCCCCCNC(=O)c1ccccc1[Se][Se]c1ccccc1C(=O)NCCCCCCCCCCCC` were, in that order, above 3.55 µM and above 3.55 µM.
On to `Cc1ccc(-c2cc(-c3ccco3)c(C#N)c(=O)n2C2OC(OC(=O)c3ccccc3)C(OC(=O)c3ccccc3)C2OC(=O)c2ccccc2)cc1` (stereo not given), for which the EC50 was above 10.2 µM and the IC50 was above 10.2 µM.
Consider `CN(C)CCCNC(=O)c1c(O)c2ccccc2n(C)c1=O`, for which the EC50 was above 200 µM and the IC50 came to 79.4 µM.
Turning to `O=C(Nc1ccccc1C(=O)NCc1ccccc1)/C(=C/c1ccccc1O)NC(=O)c1ccccc1`, the result was inactive.
`Cc1ccc(C(CO)(CO)OC(CO)(CO)c2ccc(C)c(C)c2)cc1C`: the EC50 was above 200 µM and the concentration for half-maximal inhibition (IC50) is above 200 µM.
As to `O=C1CCC(=O)N2c3ccccc3-c3ccccc3N12`, the EC50 was above 191 µM and the IC50 was above 191 µM.
With `O=c1ccn(CC2(CO)CC(Cc3ccccc3)C2)c(=O)[nH]1` (stereo not given), the EC50 is above 200 µM and the IC50 was above 200 µM.
In the case of `O=c1[nH]cnc2c1nnn2CCCn1nnc2c(=O)[nH]cnc21`, the EC50 was above 200 µM and the IC50 is above 200 µM.
On to `CC(NC(=O)C(Cc1ccc(OC(=O)c2ccccc2)cc1)NC(=O)OC(C)(C)C)C(=O)NCC(=O)NC(Cc1ccccc1)NC(=O)OCc1ccccc1` (stereo not given), for which the EC50 was above 200 µM and the IC50 stood at 110 µM.
The like results for `COc1cc(/C=C2\C(=O)N(C(=O)Cc3ccccc3)N=C2C)ccc1O` were, in that order, above 53.7 µM and above 53.7 µM.
Consider `O=C(C[n+]1ccccc1)NNC(=O)/C(=C/c1ccc2c(c1)OCO2)NC(=O)c1ccccc1`, for which the EC50 is above 7.76 µM and the 50% inhibitory concentration (IC50) is above 7.76 µM.
For `COc1ccc(N=C2S/C(=N\C(=Nc3ccccc3)SCc3ccccc3)N(c3ccccc3)C2=Nc2ccc(OC)cc2)cc1`, the EC50 was above 200 µM and the IC50 amounted to 120 µM.
For `CSCCC(NC(=O)OC(C)(C)C)C(=O)NCCNc1ccc(NCCNC(=O)C(CCSC)NC(=O)OC(C)(C)C)c2c1C(=O)c1ccccc1C2=O` (stereo not given) the same measures were above 100 µM and above 100 µM.
The like results for `Cc1c2cc(Cl)ccc2n2c(=O)c3ccccc3[nH]c(=O)c12` were, in that order, above 15.8 µM and above 15.8 µM.
For the molecule `O=c1oc2ccccc2c(O)c1Cc1c(O)c2ccccc2oc1=O`, the EC50 is above 200 µM; the half-inhibitory concentration (IC50) was 55 µM and > 200 µM.
For the molecule `COc1ccc(/C=C/C(=O)c2nc3ccccc3n2C)cc1`, the EC50 is above 200 µM and the IC50 is 26.9 µM.
For `CC(C)(C)c1cc(C(P(=O)(O)O)P(=O)(O)O)cc(C(C)(C)C)c1O` the same measures were above 525 µM and 331 µM.
As to `O=C(O)CCCCCNC(=O)CCC(CN(CC(=O)OCc1ccccc1)CC(=O)OCc1ccccc1)N(CC(=O)OCc1ccccc1)CC(=O)OCc1ccccc1` (stereo not given), the result was inactive.
Regarding `O=c1nc2sc3ccc4ccccc4c3n2nc1-c1ccccc1`, the EC50 was above 49 µM and the IC50 is above 49 µM.
Consider `O=C1COC(c2ccccc2)C(c2ccccc2)(c2ccccc2)O1` (stereo not given), for which the EC50 was above 15.8 µM and the IC50 was above 15.8 µM.
Regarding `C/C(=C\CCC1=CC(=O)OC1)CC[C@@H]1[C@H]2C(=O)CC(C)[C@@]3(C)CC[C@]1(C)[C@@]23C` (stereo not given in full), the EC50 is above 200 µM and the IC50 is 34.7 µM.
As to `Cc1nc(Nc2ccccc2C)c2ccsc2n1`, the EC50 is above 263 µM and the half-maximal inhibitory concentration (IC50) was above 263 µM.
As to `NNC(=O)Cn1ccnn1`, the EC50 was above 200 µM and the IC50 is above 200 µM.
Regarding `CC(C)(C)c1cc(Nc2c([N+](=O)[O-])cc([N+](=O)[O-])cc2[N+](=O)[O-])cc(C(C)(C)C)c1O`, the EC50 was above 16.6 µM and the half-maximal inhibitory concentration (IC50) was above 16.6 µM.
As for `CCOC(=O)CC1(c2cccc3ccccc23)OC(=O)c2ccccc21` (stereo not given), the outcome was inactive.
On to `CCN(CC)CCOc1ccc(/C(=C(\Cl)c2ccccc2)c2ccccc2)cc1`, for which the EC50 is above 200 µM and the IC50 was found to be 5.5 µM.
`O=c1cc[nH]cc1-c1c[nH]ccc1=O`: the result was inactive.
With `CCN(CCO)CCNc1ccc(C)c2sc3ccccc3c(=O)c12`, the EC50 is above 200 µM and the IC50 was found to be 2.88 µM.
The like results for `CCOP(=O)(OCC)C(C(=O)OC)C(=O)C(=O)Nc1c(C)cc(Br)cc1C` (stereo not given) were, in that order, above 537 µM and above 537 µM.
The like results for `C/C(=N/NC(=S)N1CCCCCC1)c1cccc(/C(C)=N\NC(=S)N2CCCCCC2)n1` were, in that order, above 200 µM and 3.63 µM.
For the molecule `CC(=O)OC(C)(C)C1CC[C@]2(C)/C=C/C(C)C[C@@H](O)/C=C(\C)CC(O)C12` (stereo not given in full), the result was inactive.
`CC(C)OC1=C(CC2(C)OCCO2)C(=O)C12OCCO2`: the EC50 was above 200 µM and the IC50 was above 200 µM.
In the case of `S=C(N/N=C(\c1ccccc1)c1ccccn1)NC1CCCCC1`, the EC50 is above 200 µM and the IC50 was found to be 2.4 µM.
`OC[C@H]1CCCC1O` (stereo not given in full): the outcome was inactive.
Turning to `CCC1CCC2CCCC(C)N12` (stereo not given), the EC50 is above 1480 µM and the IC50 was above 1480 µM.
For `Cc1ccc(-n2c(N)c(C#N)c3c(c2=S)CCC3)cc1`, the EC50 is above 129 µM and the IC50 is above 129 µM.
As to `COc1ccc(N2C(=O)[C@@H]3[C@@H]4CC(C)CC[C@@H]4c4c([nH]c5ccccc45)[C@@H]3C2=O)cc1` (stereo not given in full), the EC50 is above 3.31 µM and the half-maximal inhibitory concentration (IC50) is above 3.31 µM.
Regarding `CCOC(=O)C1=CC(C(=O)OCC)C2C=CC1N2C(=O)OC` (stereo not given), the outcome was inactive.
Regarding `CN(C)c1cc[n+](-c2nc(/N=C(\[O-])C(F)(F)F)nc3c2ncn3C2CC(O)C(CO)O2)cc1` (stereo not given), the EC50 is above 200 µM and the IC50 was above 200 µM.
For the molecule `Nc1nc(Cl)cc(NCC2(O)CC2)n1`, the EC50 was above 200 µM and the IC50 is above 200 µM.
`CN(C(=O)Cc1ccccc1)n1cnn(CC(=O)OC(C)(C)C)c1=S`: the EC50 was above 200 µM and the half-inhibitory concentration (IC50) was above 200 µM.
For `Cc1cccc(-c2nnc(-c3nn(-c4ccccc4)c4nc5ccccc5nc34)o2)c1`, the EC50 was above 38.9 µM and the concentration for half-maximal inhibition (IC50) was found to be 19.5 µM.
For `c1c[nH]c(Cc2ncc(Cc3cnc[nH]3)[nH]2)n1`, the outcome was inactive.
Turning to `CCC1(O)CC(CCN(Cc2ccccc2)C(=O)OCc2ccccc2)C(OCc2ccccc2)C1O` (stereo not given), the EC50 was above 200 µM and the IC50 was 9.12 µM.
The like results for `N#C/C(=C\c1ccc(O)c(O)c1)C(=O)NCCCCCCCCNC(=O)/C(C#N)=C/c1ccc(O)c(O)c1` were, in that order, above 200 µM and 13.8 µM.
For `COc1ccc(N=Nc2c(C)c(C#N)c(=S)n(C3OC(CO)C(O)C(O)C3O)c2-c2ccccc2)cc1` (stereo not given) the same measures were above 200 µM and 28.2 µM.
Turning to `O=C(O)c1cc(C(=C(c2cc(Cl)c(O)c(C(=O)O)c2)c2cc(Cl)c(O)c(C(=O)O)c2)c2cc(Cl)c(O)c(C(=O)O)c2)cc(Cl)c1O`, the EC50 was 87.1 µM and the IC50 amounted to 95.5 µM.
For `COc1ccc2c(c1OC)Oc1c(OC)ccc3c1C(C2)N(C)C[C@@H]3O` (stereo not given in full) the same measures were above 251 µM and above 251 µM.
As to `CCC(=O)CC(=O)CCC(=O)Nc1cc(C)ccc1C`, the outcome was inactive.
Turning to `CCN(CC)C(=O)COc1cc2c(O)c3c(O)c(C)c4c(c13)C(=O)C(C)(OC=CC(OC)C(C)C(OC(C)=O)C(C)C(O)C(C)C(O)C(C)C=CC=C(C)C(=O)N2)O4` (stereo not given), the EC50 is above 155 µM and the IC50 is above 100 µM.
In the case of `COc1cc(OC)c(OC)cc1/C=N/NC(=O)N/N=C/c1cc(OC)c(OC)cc1OC`, the result was inactive.
Turning to `O=C(CC1(O)C(=O)Nc2c(Cl)cc(Cl)cc21)c1cccc2ccccc12` (stereo not given), the EC50 is above 67.6 µM and the IC50 is above 67.6 µM.
For the molecule `CCc1noc2ccccc12`, the EC50 is above 339 µM and the IC50 is above 339 µM.
With `CC1C(c2ccccc2)=CCON1c1ccccc1` (stereo not given), the EC50 is above 75.9 µM and the IC50 was above 75.9 µM.
Turning to `CCOC(=O)C(C(=O)c1ccccc1C(=O)OC)=P(c1ccccc1)(c1ccccc1)c1ccccc1`, the EC50 was 22.9 µM and the IC50 was 52.5 µM.
For `CCOC(=O)N/N=C(\Cc1ccccc1)OCC` the same measures were above 200 µM and above 200 µM.
The like results for `CC1=CC(=O)c2c(O)cccc2C1=O` were, in that order, above 2 µM and 0.912 µM.
For `Cc1nc(Nc2ccc(Cl)c(Cl)c2)sc1C(=O)/C=C/c1ccc2c(c1)OCO2` the same measures were above 200 µM and 13.5 µM.
For `C=CC[C@H](C)CCC(=O)N1[C@H]2CC3CC[C@@]2(CS1(=O)=O)C3(C)C`, the EC50 is above 200 µM and the half-maximal inhibitory concentration (IC50) was determined as 75.9 µM.
The like results for `C1=Cc2ccccc2C(c2ccccc2)=NC1` were, in that order, above 229 µM and 145 µM.
Take `Cc1ccc(S(=O)(=O)OCC23CCC(C2)C2CC23)cc1` (stereo not given): the EC50 was above 100 µM and the half-maximal inhibitory concentration (IC50) is above 100 µM.
Regarding `O=C(NNC(=S)NC1CC(c2ccccc2)Oc2ccccc21)c1ccccc1` (stereo not given), the result was inactive.
For the molecule `O=[N+]([O-])OC1CCCC(O[N+](=O)[O-])c2c1n([O-])c1ccccc1[n+]2=O` (stereo not given), the EC50 was above 51.3 µM and the IC50 was 1.41 µM.
The like results for `CCCCCCCCCCCCCCCC(=O)OCC(O)CO` (stereo not given) were, in that order, above 15.8 µM and above 15.8 µM.

Source of the values: PubChem BioAssay AID179 (DTP/NCI, 2004).
